In patent US8846704B2, “Thiopyrimidine-based compounds and uses thereof” (YM Biosciences Austraila Pty Ltd, priority 2007, dated 2014):

These compounds were tested against T1, BaF3 TELJAK3 cells (Homo sapiens, UniProt P52333) (assay: Cellular screening, BaF3 TEL:JAK3 cells, Alamar Blue). Details: 40 hr, read-out: BafT_J3 IC50_nM.
T1 construct: fused on or other part: TEL (ETV6) N-terminal part, coding nucleotides 1-487, serves as the oligomerising partner; It is fused through a Sal I site to the JAK3 kinase domain and expressed from pTRE2 in BaF3 cells bearing pTET-off; P41212 (Transcription factor ETV6)
T1 sequence (P52333 1-1124): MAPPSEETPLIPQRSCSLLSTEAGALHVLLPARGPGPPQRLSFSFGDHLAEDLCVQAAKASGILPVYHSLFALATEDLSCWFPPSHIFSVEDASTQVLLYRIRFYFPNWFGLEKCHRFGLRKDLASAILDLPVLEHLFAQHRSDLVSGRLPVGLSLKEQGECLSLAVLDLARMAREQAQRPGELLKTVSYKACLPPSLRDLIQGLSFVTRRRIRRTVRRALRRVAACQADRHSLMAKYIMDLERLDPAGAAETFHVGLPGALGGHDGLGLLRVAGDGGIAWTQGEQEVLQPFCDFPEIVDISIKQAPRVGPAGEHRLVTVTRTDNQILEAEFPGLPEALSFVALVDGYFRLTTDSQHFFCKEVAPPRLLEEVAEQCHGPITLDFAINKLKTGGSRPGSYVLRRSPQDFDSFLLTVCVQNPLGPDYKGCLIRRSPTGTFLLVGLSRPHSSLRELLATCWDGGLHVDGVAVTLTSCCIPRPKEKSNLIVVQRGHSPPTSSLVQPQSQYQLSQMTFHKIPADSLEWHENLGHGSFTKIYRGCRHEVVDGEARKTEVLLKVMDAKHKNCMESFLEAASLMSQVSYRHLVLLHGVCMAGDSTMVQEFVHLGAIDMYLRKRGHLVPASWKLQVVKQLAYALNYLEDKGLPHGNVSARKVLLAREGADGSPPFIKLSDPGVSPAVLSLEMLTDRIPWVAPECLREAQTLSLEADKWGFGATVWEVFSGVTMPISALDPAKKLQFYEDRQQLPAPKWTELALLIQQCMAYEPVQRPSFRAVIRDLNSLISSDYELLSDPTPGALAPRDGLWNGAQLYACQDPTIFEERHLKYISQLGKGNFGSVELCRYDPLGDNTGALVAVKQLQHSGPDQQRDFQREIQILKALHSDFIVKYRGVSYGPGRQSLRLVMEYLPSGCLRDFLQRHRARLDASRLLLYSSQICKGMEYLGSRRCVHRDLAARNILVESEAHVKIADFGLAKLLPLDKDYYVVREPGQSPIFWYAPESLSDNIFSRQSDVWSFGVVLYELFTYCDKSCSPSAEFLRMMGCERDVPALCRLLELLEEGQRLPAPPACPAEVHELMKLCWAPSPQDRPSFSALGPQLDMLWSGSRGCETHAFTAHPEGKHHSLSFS
Format: cell-based
Procedure: For screening purposes, compounds were diluted in 96 well plates at a concentration of 20 μM. Plates were warmed at 37° C. for 30 minutes before the assay was performed.
The coding region encompassing nucleotides 1-487 of TEL was amplified by PCR using the oligonucleotides STEL (5′-GGAGGATCCTGATCTCTCTCGCTGTGAGAC-3′) [SEQ ID NO 14] and 3TEL (5′-AGGC GTCGACTTCTTCTTCATGGTTCTG-3′) [SEQ ID NO 15] and U937 mRNA as a template. A […] restriction site was incorporated into the STEL primer, and a Sal I restriction site was incorporated into the 3TEL primer. The regions encompassing the kinase domain of JAK2 (nucleotides 2994-3914; JAK2F 5′-ACGC GTCGACGGTGCCTTTGAAGACCGGGAT-3′ [SEQ ID NO 16]; JAK2R 5′-ATAGTTTAGCGGCCGCTCAGAATGAAGGTCATTT-3′) [SEQ ID NO 17] and JAK3 (nucleotides 2520-3469; JAK3F 5′-GAAGTCGACTATGCCTGCCAAGACCCCACGATCTT-3′) [SEQ ID NO 18] were generated by PCR using Taq DNA polymerase (Gibco/BRL) and […] as a template. A Sal I restriction site was incorporated into the forward primer of JAK2 and JAK3, a Not I site was incorporated into the JAK2 reverse primer and a Xba I site was added to the reverse primer of JAK3.
The TEL/Jak3 fusion was prepared by ligation of the JAK3 Sal I/Not I cleaved kinase domain PCR product with the BamH I/Sal I restriction digested TEL product, followed by ligation of the ligation product into the BamH I/Not I digested pTRE2, to give the TEL/Jak3 fusion plasmid pTELJAK3.
The growth factor dependant myelomonocytic cell line BaF3 bearing the pTET-off plasmid (Clontech) was transfected with either pTELJAK2 or pTELJAK3, and the transfected cells were selected for growth-factor independent cell growth. The BaF3 wild-type cells were cultured in DMEM containing 10% FCS, 10% WEHI 3B conditioned medium. The BaF3 TELJAK cells ([…]) were cultured in DMEM 10% Tet-System Approved FBS (without WEHI 3B conditioned medium).
Cell suspensions were prepared by harvesting cells from culture (the cells used in this test were in late log phase growth with high viability.) Cells were diluted in the appropriate growth medium, as described above, to 1.1× final concentration (from 50,000 cell/mL to 200,000 cell/mL, depending on cell line).
Compounds to be tested were added (10 μL, 10× final concentration) to a flat bottomed 96-well plate. The cellular suspension (90 μL per well) was then added, and the plate incubated for 40 hr at 37° C., 5% CO2. Alamar Blue 10 μL per well was added and the plates returned to the incubator for a further 4-6 hours. The plates were then read at 544 nm.
`C=CC(=O)Nc1cccc(Sc2ccnc(Nc3cccc(N4CCOCC4)c3)n2)c1` [Compound 110, N-(3-(2-(3-morpholinophenylao)pyrimidin-4-ylthio)phenyl)acrylamide] showed a GI50 of under 1 µM.
For `C=CC(=O)NCc1ccc(Sc2ccnc(Nc3ccc(N4CCOCC4)cc3)n2)cc1` [Compound 111, N-(4-(2-(4-morpholinophenylamino)pyrimidin-4-ylthio)benzyl)acrylamide], the GI50 was under 1 µM.
For `Cc1cc(Sc2nc(Nc3ccc(N4CCOCC4)cc3)ncc2C)ccc1N` [Compound 255, 4-(4-ao-3-methylphenylthio)-5-methyl-N-(4-morpholinophenyl)pyrimidin-2-ae], the GI50 was under 20 µM.
Compound `C=CC(=O)Nc1ccc(Sc2nc(Nc3ccc(N4CCOCC4)nc3)ncc2C)cc1` [Compound 254, N-(4-(5-methyl-2-(6-morpholinopyridin-3-ylao)pyrimidin-4-ylthio)phenyl)acrylamide] has a GI50 of under 1 µM.
`C=CC(=O)Nc1ccc(Sc2nc(Nc3ccc(N4CCOCC4)cc3)ncc2F)cc1` [Compound 268, N-(4-(5-fluoro-2-(4-morpholinophenylao)pyrimidin-4-ylthio)phenyl)acrylamide] showed a GI50 of under 1 µM.
Work on `Cc1cnc(Nc2ccc(O)cc2)nc1Sc1ccc(NC(=O)CCl)cc1` [Compound 193, 2-chloro-N-(4-(2-(4-hydroxyphenylao)-5-methylpyrimidin-4-ylthio)phenyl)acetamide] yielded a GI50 of under 1 µM.
`C=CC(=O)Nc1ccc(Sc2ccnc(Nc3ccc(N4CCOCC4)cc3)n2)cc1` [Compound 25, N-(4-(2-(4-morpholinophenylamino)pyrimidin-4-ylthio)phenyl)acrylamide] showed a GI50 of under 1 µM.
In the case of `C=CC(=O)Nc1ccc(Sc2nc(Nc3ccc(N4CCCC(O)C4)cc3)ncc2C)cc1` (centres unmarked) [Compound 299, N-(4-(2-(4-(3-hydroxypiperidin-1-yl)phenylao)-5-methylpyrimidin-4-ylthio)phenyl)acrylamide], the GI50 is reported as under 1 µM.
`C=CC(=O)Nc1cccc(Nc2nccc(Sc3ccccn3)n2)c1` [Compound 2, N-(3-(4-(pyridin-2-ylthio)pyrimidin-2-ylamino)phenyl)acrylamide] showed a GI50 of under 1 µM.
`C=CC(=O)Nc1ccc(Sc2nc(Nc3ccc(OC)c(OC)c3)ncc2C)cc1` [Compound 241, N-(4-(2-(3,4-dimethoxyphenylao)-5-methylpyrimidin-4-ylthio)phenyl)acrylamide] showed a GI50 of under 1 µM.
With `C=CC(=O)Nc1ccc(Sc2nc(Nc3ccc(N4CCOCC4)cc3)ncc2C)cc1C` [Compound 259] the GI50 was under 1 µM.
`C=CC(=O)Nc1ccc(Sc2ccnc(Nc3cccc(N4CCOCC4)c3)n2)cc1` [Compound 77, N-(4-(2-(3-morpholinophenylao)pyrimidin-4-ylthio)phenyl)acrylamide] was tested, and the GI50 was under 1 µM.
With `C=CC(=O)N(C)c1ccc(Sc2nc(Nc3ccc(N4CCOCC4)cc3)ncc2Br)cc1` [Compound 261, N-(4-(5-bromo-2-(4-morpholinophenylao)pyrimidin-4-ylthio)phenyl)-N-methylacrylamide] the GI50 was under 1 µM.
In the case of `CC#CC(=O)Nc1cccc(Nc2nccc(SC)n2)c1` [Compound 8, N-(3-(4-(methylthio)pyrimidin-2-ylao)phenyl)but-2-ynamide], the GI50 is reported as under 5 µM.
`C=CC(=O)Nc1ccc(Sc2nc(Nc3ccc(N4CCOCC4)cc3)ncc2Br)cc1` [Compound 306, N-(4-(5-bromo-2-(4-morpholinophenylao)pyrimidin-4-ylthio)phenyl)acrylamide] gave a GI50 of under 1 µM.
With `OCc1cccc(Sc2ccnc(Nc3ccc(N4CCOCC4)cc3)n2)c1` [Compound 62, (3-(2-(4-Morpholinophenylamino)pyrimidin-4-ylthio)phenyl)methanol] the GI50 was under 20 µM.
In the case of `C=CC(=O)Nc1ccc(Sc2nc(Nc3ccc(C4CCN(C)CC4)cc3)ncc2C)cc1` [Compound 246, N-(4-(5-methyl-2-(4-(1-methylpiperidin-4-yl)phenylao)pyrimidin-4-ylthio)phenyl)acrylamide], the GI50 is reported as under 1 µM.
For `O=C(/C=C\Cl)Nc1ccc(Sc2ccnc(Nc3ccc(N4CCOCC4)cc3)n2)cc1` [Compound 346, (Z)-3-chloro-N-(4-(2-(4-morpholinophenylao)pyrimidin-4-ylthio)phenyl)acrylamide], the GI50 was under 1 µM.
Compound `N#Cc1nnnn1Cc1ccc(Sc2ccnc(Nc3ccc(N4CCOCC4)cc3)n2)cc1` [Compound 155, 1-(4-(2-(4-morpholinophenylao)pyrimidin-4-ylthio)benzyl)-1H-tetrazole-5-carbonitrile] has a GI50 of under 20 µM.
`Cc1cnc(Nc2ccc(N3CCOCC3)cc2)nc1Sc1ccc(N2C(=O)CSCC2=O)cc1` [Compound 231, 4-(4-(5-methyl-2-(4-morpholinophenylao)pyrimidin-4-ylthio)phenyl)thiomorpholine-3,5-dione] gave a GI50 of under 20 µM.
`C=CC(=O)Nc1ccc(Sc2nc(Nc3cccc(N4CCN(C)CC4)c3)ncc2C)cc1` [Compound 243, N-(4-(5-methyl-2-(3-(4-methylpiperazin-1-yl)phenylao)pyrimidin-4-ylthio)phenyl)acrylamide] showed a GI50 of under 1 µM.
With `CC#CC(=O)Nc1ccc(Sc2ccnc(Nc3cccc(N4CCOCC4)c3)n2)cc1` [Compound 233, N-(4-(2-(3-morpholinophenylao)pyrimidin-4-ylthio)phenyl)but-2-ynamide] the GI50 was under 1 µM.
With `C=CC(=O)Nc1ccc(Sc2nc(Nc3ccc(OCCCN(CC)CC)cc3)ncc2C)cc1` [Compound 291, N-(4-(2-(4-(3-(diethylao)propoxy)phenylao)-5-methylpyrimidin-4-ylthio)phenyl)acrylamide] the GI50 was under 1 µM.
Compound `Cc1cnc(Nc2cccc(O)c2)nc1Sc1ccc(NC(=O)CCl)cc1` [Compound 194, 2-chloro-N-(4-(2-(3-hydroxyphenylao)-5-methylpyrimidin-4-ylthio)phenyl)acetamide] has a GI50 of under 1 µM.
`C=CC(=O)Nc1ccc(Sc2nc(Nc3cccc(CO)c3)ncc2C)cc1` [Compound 280, N-(4-(2-(3-(hydroxymethyl)phenylao)-5-methylpyrimidin-4-ylthio)phenyl)acrylamide] was tested, and the GI50 was under 1 µM.
For `C=CC(=O)Nc1ccc(Sc2ccnc(Nc3cccc(CO)c3)n2)cc1` [Compound 278, N-(4-(2-(3-(hydroxymethyl)phenylao)pyrimidin-4-ylthio)phenyl)acrylamide], the GI50 was under 1 µM.
